The results in this text go back to patent US20240246984A1, “HETEROCYCLIC JAK INHIBITOR” (BEIJING INNOCARE PHARMA TECH CO., LTD., priority 2020, published 2024).

The test system of experiment [1] is IL-12-induced IFN-γ secretion in NK92 cells. The experiment in a line: Inhibition of IL-12-induced IFN-γ secretion in NK92 cells (ELISA). In kind it is cell-based. The conditions noted are these: Homo sapiens, IL-12 stimulation, 24 hours, read-out: IC50 (NK92IL12/IFN-γ). The protocol: The effect of the compounds of the present invention on IFN-γ secretion in IL-12-induced NK92 cells was evaluated by an enzyme-linked immunosorbent assay (ELISA).
The assay principle was generally described below: IL-12R was mainly expressed in activated T-cells, NK cells (NK92 was an NK cell line), DC cells, and B-cells. When binding to IL-12, it activated the JAK2/TYK2 signal transduction pathway within NK cells and activated T lymphocytes, thereby inducing secretion of IFN-γ.
The compound was dissolved to 2.5 mM in DMSO, followed by a serial 4-fold dilution with DMSO to a minimum concentration of 0.31 μM. Each concentration was further diluted 50-fold with an FBS-free MEMα medium (Thermofisher. 12561-056).
NK92 cells (Nanjing Cobioer, CBP60980) were cultured in a complete MEMα medium containing 12.5% FBS (Ausbian, VS500T), 12.5% horse serum (Thermofisher, 16050-122), 0.02 mM folic acid (Sigma, F8758), 0.2 mM inositol (Sigma, 17850), 0.55 mM β-mercaptoethanol (Thermofish, 21985-023), 200 U/mL IL-2 (R&D Systems, 202-1L), and 100 U/mL penicillin-streptomycin mixed liquor (ThermoFisher, 15140122). When covering 80-90% of the culture container surface, the cells were dispersed and plated on a 96-well plate (ThermoFisher, 167425) with 100,000 cells per well (80 μL of the complete MEMα medium without IL-2). The 96-well plate was then incubated overnight in a 37° C., 5% CO2 incubator.
After overnight incubation, 10 μL of the compound and 10 μL of 50 ng/ml IL-12 (R &D Systems, 219-1L) were added to each well and mixed gently, and the 96-well plate was incubated in the 37° C., 5% CO2 incubator for additional 24 hours. The plate was centrifuged at 800 rpm for 10 minutes at room temperature and 50 μL of the supernatant from each well was transferred to another 96-well plate (Sigma, CLS3695) coated with anti-IFN-γ antibody. The amount of IFN-γ secretion was detected following the instruction from the Human IFN-γ DuoSet ELISA assay kit (R & D Systems, DY285B). In this assay, the group in which IL-12 and the test compound were replaced with the MEMα medium was the non-stimulated control group (100% inhibition), and the group with IL-12 and 0.2% DMSO was the stimulated control group (0% inhibition). The compound inhibition curve was plotted using XLfit software and the IC50 of its inhibition was calculated.

Experiment [2] deals with human recombinant TYK2 protein (Homo sapiens, UniProt P29597). The experiment in a line: TYK2 activity inhibition assay (HTRF kinase detection). In kind it is biochemical. The conditions noted are these: 11.25 μM ATP substrate solution. The protocol: The effect of the compounds of the present invention on the activity of TYK2 was assessed by using an in vitro kinase detection assay.
The enzymatic activity of TYK2 was assessed by detecting the substrate phosphorylation level in a kinase reaction with a homogeneous time-resolved fluorescence (HTRF) kinase detection kit (Cisbio, 62TK0PEC). A reaction buffer contained an enzyme buffer (1×), 5 mM MgCl2, 1 mM DTT and 0.01% Brij35 from the kit; a human recombinant TYK2 protein (Carna Biosciences, 08-147) was diluted to a kinase reaction solution of 0.25 ng/μL with the reaction buffer; a substrate reaction solution contained 11.25 μM ATP and a biotin-labeled tyrosine kinase substrate diluted to 0.5 μM with the reaction buffer; a detection buffer contained 0.1 ng/μL Eu^3+ labeled cage antibody (Cisbio, 61T66KLB) and 25 nM streptavidin-labeled XL665 (Cisbio, 610SAXLB) in the reaction buffer; the compound was dissolved to 10 μM in DMSO, followed by a serial 4-fold dilution with DMSO to a minimum concentration of 0.061 nM. Each concentration was further diluted 40-fold with the reaction buffer. To a 384-well assay plate (Corning, 3674) were added 4 μL of the compound solutions having a series of concentrations and 2 μL of kinase reaction solutions. After being mixed evenly, the mixtures were incubated at room temperature for 15 minutes, and then 4 μL of the substrate reaction solutions were added. The reaction mixtures were incubated at room temperature for 40 minutes. Then the reaction mixtures were added with 10 μL of detection solutions, mixed evenly, and allowed to stand at room temperature for 30 minutes. An Envision plate reader (Perkin Elmer) was then used to measure the progress of the reaction at wavelengths of 620 nm and 665 nm. The signal value (absorbance at 665 nm/absorbance at 620 nm) was positively correlated with the degree of substrate phosphorylation, therefore the kinase activity of TYK2 was detected. In this assay, the group without TYK2 kinase protein was the 100% inhibition group, and the group with TYK2 kinase protein but without the test compound was the 0% inhibition group. The compound inhibition curve was plotted using XLfit software and the IC50 of its inhibition was calculated.

The target in experiment [3] is human recombinant JAK2 protein (Homo sapiens, UniProt O60674). The experiment in a line: JAK2 activity inhibition assay (HTRF kinase detection). In kind it is biochemical. The conditions noted are these: 2.5 μM ATP substrate solution. How it is done: The effect of the compounds of the present invention on the activity of JAK2 was assessed by using an in vitro kinase detection assay.
The enzymatic activity of JAK2 was assessed by detecting the substrate phosphorylation level in a kinase reaction with a homogeneous time-resolved fluorescence (HTRF) kinase detection kit (Cisbio, 62TK0PEC). A reaction buffer contained an enzyme buffer (1×), 5 mM MgCl2, 1 mM DTT and 0.01% Brij35 from the kit; a human recombinant JAK2 protein (Carna Biosciences, 08-045) was diluted to a kinase reaction solution of 0.15 ng/μL with the reaction buffer; a substrate reaction solution contained 2.5 μM ATP and a biotin-labeled tyrosine kinase substrate diluted to 0.25 μM with the reaction buffer; a detection buffer contained 0.1 ng/μL Eu^3+ labeled cage antibody (Cisbio, 61T66KLB) and 12.5 nM streptavidin-labeled XL665 (Cisbio, 610SAXLB) in the reaction buffer; the compound was dissolved to 10 μM in DMSO, followed by a serial 4-fold dilution with DMSO to a minimum concentration of 0.061 nM. Each concentration was further diluted 40-fold with the reaction buffer. To a 384-well assay plate (Corning, 3674) were added 4 μL of the compound solutions having a series of concentrations and 2 μL of JAK2 kinase reaction solutions. After being mixed evenly, the mixtures were incubated at room temperature for 15 minutes, and then 4 μL of the substrate reaction solutions were added. The reaction mixtures were incubated at room temperature for 30 minutes. Then the reaction mixtures were added with 10 μL of detection solutions, mixed evenly, and allowed to stand at room temperature for 30 minutes. An Envision plate reader (Perkin Elmer) was then used to measure the progress of the reaction at wavelengths of 620 nm and 665 nm. The signal value (absorbance at 665 nm/absorbance at 620 nm) was positively correlated with the degree of substrate phosphorylation, therefore the kinase activity of JAK2 was detected. In this assay, the group without JAK2 kinase protein was the 100% inhibition group, and the group with JAK2 kinase protein but without the test compound was the 0% inhibition group. The compound inhibition curve was plotted using XLfit software and the IC50 of its inhibition was calculated.

Consider `CS(=O)(=O)c1ccc(Nc2nc(-c3c(F)cccc3F)n3c2C(=O)NCC3)cc1` [Compound 12, 3-(2,6-difluorophenyl)-1-((4-(methylsulfonyl)phenyl)amino)-6,7-dihydroimidazo[1,5-a]pyrazin-8(5H)-one], for which the IC50 worked out at 110 nM in experiment [1], 0.9 nM in experiment [2] and 5.5 nM in experiment [3].
For `CC(C)(C(=O)N1CCNCC1)c1ccc(Nc2nc(-c3c(F)cccc3Cl)n3cc[nH]c(=O)c23)cc1` [Compound 38, 3-(2-chloro-6-fluorophenyl)-1-((4-(2-methyl-1-oxo-1-(piperazin-1-yl)propan-2-yl)phenyl)amino)imidazo[1,5-a]pyrazin-8(7H)-one], in that order: 2850 nM, 0.4 nM and 0.5 nM.
Turning to `CC(C)(C(N)=O)c1ccc(Nc2nc(-c3c(F)cccc3Cl)n3cc[nH]c(=O)c23)cc1` [Compound 33, 2-(4-((3-(2-chloro-6-fluorophenyl)-8-oxo-7,8-dihydroimidazo[1,5-a]pyrazin-1-yl)amino)phenyl)-2-methylpropanamide], the IC50 in experiment [1] was 66 nM; in experiment [2] it was 0.1 nM; in experiment [3], 0.4 nM.
Regarding `CC(C)(C(=O)N1CCOCC1)c1ccc(Nc2nc(-c3c(F)cccc3F)n3c2C(=O)NCC3)cc1` [Compound 18, 3-(2,6-difluorophenyl)-1-((4-(2-methyl-1-morpholino-1-oxopropan-2-yl)phenyl)amino)-6,7-dihydroimidazo[1,5-a]pyrazin-8(5H)-one], the IC50 in experiment [1] worked out at 1410 nM; in experiment [2], 0.3 nM; in experiment [3], 2.2 nM.
As to `CN1CCN(C(=O)C(C)(C)c2ccc(Nc3nc(-c4c(F)cccc4Cl)n4cc[nH]c(=O)c34)cc2)CC1` [Compound 37, 3-(2-chloro-6-fluorophenyl)-1-((4-(2-methyl-1-(4-methylpiperazin-1-yl)-1-oxopropan-2-yl)phenyl)amino)imidazo[1,5-a]pyrazin-8(7H)-one], the IC50 was 268 nM in experiment [1], 0.2 nM in experiment [2] and 0.6 nM in experiment [3].
For the molecule `NC(=O)c1ccc(Nc2nc(-c3c(F)cccc3F)n3cc[nH]c(=O)c23)cc1` [Compound 27, 4-((3-(2,6-difluorophenyl)-8-oxo-7,8-dihydroimidazo[1,5-a]pyrazin-1-yl)amino)benzamide], the IC50 in experiment [1] was 60 nM; in experiment [2] it was 0.2 nM; in experiment [3] it was 1.4 nM.
For `CS(=O)(=O)c1ccc(Nc2nc(-c3c(F)cccc3F)n3cc[nH]c(=O)c23)cc1` [Compound 11, 3-(2,6-difluorophenyl)-1-((4-(methylsulfonyl)phenyl)amino)imidazo[1,5-a]pyrazin-8(7H)-one], the IC50 in experiment [1] is 242 nM; in experiment [2], 4 nM; in experiment [3], 1.4 nM.
Taken in the same sequence, the figures for `Cn1cc(Nc2nc(-c3c(F)cccc3F)n3cc[nH]c(=O)c23)cn1` [Compound 4, 3-(2,6-difluorophenyl)-1-((1-methyl-1H-pyrazol-4-yl)amino)imidazo[1,5-a]pyrazin-8(7H)-one] were 175 nM, 0.8 nM and 2 nM.
For `O=C(Cc1ccc(Nc2nc(-c3c(F)cccc3F)n3cc[nH]c(=O)c23)cc1)N1CCOCC1` [Compound 14, 3-(2,6-difluorophenyl)-1-((4-(2-morpholino-2-oxoethyl)phenyl)amino)imidazo[1,5-a]pyrazin-8(7H)-one], in that order: 113 nM, 0.3 nM and 0.5 nM.
For `O=C(c1ccc(Nc2nc(-c3c(F)cccc3Cl)n3cc[nH]c(=O)c23)cc1)N1CCNCC1` [Compound 32, 3-(2-chloro-6-fluorophenyl)-1-((4-(piperazine-1-carbonyl)phenyl)amino)imidazo[1,5-a]pyrazin-8(7H)-one], in that order: 425 nM, 0.1 nM and 0.6 nM.
For the molecule `CC(C)(C(=O)N1CCC1)c1ccc(Nc2nc(-c3c(F)cccc3F)n3c2C(=O)NCC3)cc1` [Compound 13, 1-((4-(1-(azetidin-1-yl)-2-methyl-1-oxopropan-2-yl)phenyl)amino)-3-(2,6-difluorophenyl)-6,7-dihydroimidazo[1,5-a]pyrazin-8(5H)-one], the IC50 in experiment [1] worked out at 1060 nM; in experiment [2], 0.3 nM; in experiment [3], 2.2 nM.
Taken in the same sequence, the figures for `O=c1[nH]ccn2c(-c3c(F)cccc3F)nc(Nc3ccc(N4CCOCC4)cc3)c12` [Compound 6, 3-(2,6-difluorophenyl)-1-((4-morpholinophenyl)amino)imidazo[1,5-a]pyrazin-8(7H)-one] were 198 nM, 0.3 nM and 5.3 nM.
Taken in the same sequence, the figures for `Cn1cc(Nc2nc(-c3c(F)cccc3F)n3c2C(=O)NCC3)cn1` [Compound 5, 3-(2,6-difluorophenyl)-1-((1-methyl-1H-pyrazol-4-yl)amino)-6,7-dihydroimidazo[1,5-a]pyrazin-8(5H)-one] were 1310 nM, 4.8 nM and 27 nM.
On to `O=C1NCCn2c(-c3c(F)cccc3F)nc(Nc3ccc(C(=O)N4CCOCC4)cc3)c21` [Compound 2, 3-(2,6-difluorophenyl)-1-((4-(morpholine-4-carbonyl)phenyl)amino)-6,7-dihydroimidazo[1,5-a]pyrazin-8(5H)-one], for which the IC50 in experiment [1] stood at 95 nM.
